The values that follow come from patent publication US6967205B1, “Compounds with antibacterial and antiparasitic properties” (New Pharma Research Sweden AB, priority 1999, dated 2005).

Each structure is given as a SMILES string. Values after ≈ are worked out from the molar mass of the structure shown. Values joined by “and” are separate entries in the source; they are usually repeats but may differ in a detail not shown here. Equal values may be shown once.

The test system of one assay is T. evansi. The experiment in a line: Antitrypanosomal activity in vivo in white albino rats (Giemsa blood smears). To be noted: individual animals. As for the experimental part: The antitrypanosomal activity of the present compounds was evaluated in vivo on 40 white albino rats. The rats were divided into 4 groups of 10 rats each. The rats were then inoculated intraperitoneally with 10^3 organisms of T. evansi (isolated from blood of naturally infected camels) in accordance with known methodology (see Kolmer, J. A., J. Infect. Dis., 17:78-95 (1915)). The progress of the infection was monitored with the aid of standard Giemsa procedure (see Cruickshank, R., Handbook of Bacteriology, E and S Livingstone Ltd., Edinborough and London, 1961), whereby peripheral blood samples from the rats were examined under microscope. The number of Trypanosoma organisms in every blood sample was calculated and classified as follows (the numbers below are given for fields examined on a microscope slide): • +++=>10 organisms • ++=5-10 organisms • +=1-4 organisms • 0=no organisms detected
On day 1 post infection, each group of rats was subcutaneously injected with a single dose of tested compound in an amount of 50.0 mg/kg body weight. The following drugs were administered:
Group #4: saline solution (control group)

The subject of assay [1] is Bacillus subtilus (ATCC 6633). The experiment in a line: M.I.C. by broth dilution method (NCCLS 1988), gram-positive bacteria. The class given is cell-based. The following applies: ATCC6633, in vitro broth dilution. As for the experimental part:
(§1) The antibacterial activity of the present compounds was investigated by in vitro evaluation of their M.I.C. (Minimum Inhibitory Concentration) values. The evaluation was conducted in complete accordance with the “Broth dilution method”, as outlined by the U.S. National Committee for Clinical Laboratory Standards “NCCLS 1988”.
(§2) Solutions of the present compounds were prepared by dissolving 0.01 g of a test compound in either 10% KOH (aq) or a 10% KOH/DMF mixture, after which sterile, distilled H2O was added up to a total volume of 10 ml, thereby yielding a test compound concentration of 1 000 μg/ml.
(§3) In this evaluation, the antibacterial activity of the present compounds and enrofloxacin as reference compound was tested against seven strains of gram-positive bacteria, namely Bacillus subtilus (ATCC 6633), Bacillus cereus, Streptococcus faecium, Micrococcus Luteus (ATCC 9341), Staph. aureus (ATCC 29737), Staph. epidermidis (ATCC 12228) and Staphylococcus (ATCC 6538).
On the technique in general: In broth dilution the organism is exposed to a series of concentrations in liquid medium.

Assay [2] deals with Staphylococcus (ATCC 6538). Described as above. Type of assay: cell-based. To be noted: ATCC6538, in vitro broth dilution, read-out: M.I.C. values Staph. (ATCC 6538). As to the method:
as §1, §2, §3

The test system of the next assay is Bacillus cereus. The description is as above. Type of assay: cell-based. To be noted: in vitro broth dilution. As to the method:
as §1, §2, §3

The subject of assay [3] is Staph. epidermidis (ATCC 12228). Described as above. Type of assay: cell-based. The following applies: Staphylococcus epidermidis, ATCC12228, in vitro broth dilution. As for the experimental part:
as §1, §2, §3

Another assay has as its system Streptococcus faecium. Described as above. The class given is cell-based. The following applies: Enterococcus faecium, in vitro broth dilution, read-out: M.I.C. values Streptoc. faecium. As to the method:
as §1, §2, §3

For assay [4], the system named is Staph. aureus (ATCC 29737). The description is as above. The class given is cell-based. The following applies: Staphylococcus aureus, ATCC29737, in vitro broth dilution. As for the experimental part: as §1, §2, §3
Assay [5] deals with Micrococcus Luteus (ATCC 9341). The description is as above. Type of assay: cell-based. To be noted: ATCC9341, in vitro broth dilution, read-out: M.I.C. values Microc. Luteus. As to the method: as §1, §2, §3
The subject of the next assay is M. gallisepticum. The assay can be described thus: M.I.C. against Mycoplasma in microtitre plates (Tanner and Wu). Type of assay: cell-based. To be noted: in vitro; for MIC: Mycoplasmoides gallisepticum. As to the method:
The M.I.C. values of the compounds JA 1, JA 3, JA 5, JA 12, JA 42 and JA 43 were determined in vitro against M. gallisepticum. Enrofloxacin, tylosin and oxytetracyclin were used as reference compounds. The tested compounds were all stored and applied as solutions in distilled water. The M.I.C. evaluation was performed in microtitre plates, and the methodology employed was basically that of Tanner and Wu (Avian Disease, 36:714-717 (1992)).

The test system of assay [6] is E. mitis, E. hagani, E. praecox, E. acervulina, E. maxima, E. necatrix, E. tenella and E. brunetti. The assay can be described thus: Prophylactic anticoccidial effect, additional trials in chickens of Habbared X breed (8 Eimeria strains). To be noted: B700 100 ppm. Type of assay: in vivo. As to the method:
In yet another evaluation of the prophylactic anticoccidial effect of the present compounds, additional trials on chickens of Habbared X breed were performed. The same test protocol as the one previously employed for this breed of chickens was used, albeit with the following following modifications: • i) On day 8 after hatch, the chickens received feed containing B700 (100 ppm), JA 3 (200 ppm) or Coxistac (100 ppm); • ii) On day 11 after hatch, the chickens were infected orally by oocysts containing a mixture of 8 mature sporulated strains, namely E. mitis, E. hagani, E. praecox, E. acervulina, E. maxima, E. necatrix, E. tenella and E. brunetti. The results of this evaluation were slightly unexpected.

[7] abbreviates: day 1 post infection (day of dosing), single s.c. dose 50.0 mg/kg.
[8] abbreviates: day 3 post infection, single s.c. dose 50.0 mg/kg on day 1, 50 mg/kg.
[9] abbreviates: day 5 post infection, single s.c. dose 50.0 mg/kg on day 1, 50 mg/kg.
Where [10] appears, read: day 7 post infection, single s.c. dose 50.0 mg/kg on day 1, 50 mg/kg.
The mark [11] stands for this setting: day 9 post infection, single s.c. dose 50.0 mg/kg on day 1, 50 mg/kg.
The mark [12] stands for this setting: day 11 post infection, single s.c. dose 50.0 mg/kg on day 1, 50 mg/kg.
The mark [13] stands for this setting: day 13 post infection, single s.c. dose 50.0 mg/kg on day 1, 50 mg/kg.

Take `CC(C)c1ccc(Nc2cc3c(cc2F)c(=O)c(C(=O)O)cn3C2CC2)cc1` [JA 74, 1-cyclopropyl-6-fluoro-7-(4-isopropylanilino)-4-oxo-1,4-dihydro-3-quinolinecarboxylic acid]: the “Number of T. evansi per examined field” value with T. evansi (setting [7]) is “+ (+=1-4 organisms)”; in the assay with T. evansi (setting [8]), “++ (++=5-10 organisms)”; in the assay with T. evansi (setting [9]) it was “+++ (+++=>10 organisms) and 0 (0=no organisms detected) (6×) and ++ (++=5-10 organisms) (2×) and + (+=1-4 organisms)”; in the assay with T. evansi (setting [10]), “dead and 0 (0=no organisms detected) (9×)”; with T. evansi (setting [11]), “dead and 0 (0=no organisms detected) (9×)”; with T. evansi (setting [12]) it was “dead and 0 (0=no organisms detected) (9×)”. In addition, the “Number of T. evansi per examined field” value with T. evansi (setting [13]) is “dead and 0 (0=no organisms detected) (9×)”. Besides, the MIC in assay [1] turned out to be 0.12 µg/mL (≈ 0.315 µM); in [2] it was 0.12 µg/mL (≈ 0.315 µM); with Bacillus cereus, 0.12 µg/mL (≈ 0.315 µM); in assay [3], 0.12 µg/mL (≈ 0.315 µM); with Streptococcus faecium, 2 µg/mL (≈ 5.26 µM); in assay [4], 0.12 µg/mL (≈ 0.315 µM). For the same compound, in [5], the MIC was 2 µg/mL (≈ 5.26 µM).

For `CN(C)[C@@H]1C(=O)C(C(N)=O)=C(O)[C@@]2(O)C(=O)C3=C(O)c4c(O)cccc4[C@@](C)(O)[C@H]3[C@H](O)[C@@H]12` [Oxytetracyclin, oxytetracyclin, reference compound], the “M.I.C. values against M. gallisepticum” value in the assay on M. gallisepticum (microtitre plates) is reported as 0.12.

For `O=C(O)c1cn(C2CC2)c2cc(N3CCN(S(=O)(=O)c4ccc(Cl)s4)CC3)c(F)cc2c1=O` [JA 43, 7-{4-[(5-chloro-2-thienyl)sulfonyl]-1-piperazinyl}-1-cyclopropyl-6-fluoro-4-oxo-1,4-dihydro-3-quinolinecarboxylic acid], the MIC turned out to be 0.25 µg/mL (≈ 0.488 µM) with M. gallisepticum (microtitre plates); 0.25 µg/mL (≈ 0.488 µM) in assay [1]; 0.03 µg/mL (≈ 0.0586 µM) in assay [2]; 0.12 µg/mL (≈ 0.234 µM) in the assay on Bacillus cereus; 0.25 µg/mL (≈ 0.488 µM) in assay [3]; 1 µg/mL (≈ 1.95 µM) in the assay with Streptococcus faecium. Moreover, the MIC turned out to be 0.12 µg/mL (≈ 0.234 µM) in assay [4] and 1 µg/mL (≈ 1.95 µM) in [5].

In the case of `O=C(O)c1cn(C2CC2)c2cc(N3CCN(S(=O)(=O)c4ccccc4)CC3)c(F)cc2c1=O` [JA 1, 1-cyclopropyl-6-fluoro-4-oxo-7-[4-(phenylsulfonyl)-1-piperazinyl]-1,4-dihydro-3-quinolinecarboxylic acid], the MIC in the assay with M. gallisepticum (microtitre plates) came out at 0.03 µg/mL (≈ 0.0636 µM); in [1] it was 0.06 µg/mL (≈ 0.127 µM); in assay [2], 0.06 µg/mL (≈ 0.127 µM); against Bacillus cereus, 0.06 µg/mL (≈ 0.127 µM); in assay [3], 0.06 µg/mL (≈ 0.127 µM); with Streptococcus faecium, 0.5 µg/mL (≈ 1.06 µM). Further, the MIC was found to be 0.12 µg/mL (≈ 0.255 µM) in assay [4] and 0.5 µg/mL (≈ 1.06 µM) in assay [5]. The “antibacterial activity against M. gallisepticum (in words)” value in the assay with M. gallisepticum is recorded as “high antibacterial activity”.

Turning to `O=C(O)c1cn(C2CC2)c2cc(N3CCC(CNC(=S)Nc4ccccc4)CC3)c(F)cc2c1=O` [JA 110, 7-(4-{[(anilinocarbothioyl)amino]methyl}-1-piperidinyl)-1-cyclopropyl-6-fluoro-4-oxo-1,4-dihydro-3-quinolinecarboxylic acid], the “Number of T. evansi per examined field” value is “+ (+=1-4 organisms)” in the assay on T. evansi (setting [7]); “++ (++=5-10 organisms)” with T. evansi (setting [8]); “++ (++=5-10 organisms)” with T. evansi (day 5 post infection, single s.c. dose 50.0 mg/kg on day 1); “++ (++=5-10 organisms)” in the assay on T. evansi (day 7 post infection, single s.c. dose 50.0 mg/kg on day 1); “+ (+=1-4 organisms) and 0 (0=no organisms detected) (9×)” with T. evansi (setting [11]); “+ (+=1-4 organisms) and 0 (0=no organisms detected) (9×)” in the assay on T. evansi (setting [12]). The “Number of T. evansi per examined field” value in the assay on T. evansi (day 13 post infection, single s.c. dose 50.0 mg/kg on day 1) is recorded as 0 (0=no organisms detected).

Turning to `O=C(O)c1cn(C2CC2)c2cc(N3CCN(C(=O)Nc4ccc([N+](=O)[O-])cc4)CC3)c(F)cc2c1=O` [B700, 1-cyclopropyl-6-fluoro-7-{4-[(4-nitroanilino)carbonyl]-1-piperazinyl}-4-oxo-1,4-dihydro-3-quinolinecarboxylic acid], the “anticoccidial activity (in words)” value in assay [6] (JA 3 200 ppm in feed from day 8, infected day 11) was “significant anticoccidial activity”. In addition, in assay [6] (JA 3 200 ppm, Coxistac 100 ppm), the “increased body weight gain as compared to the Coxistac treated group” value is reported as “approximately 10%” and the “total number of oocysts during the treatment compared to Coxistac group” value is listed as “higher than for the group treated with Coxistac”.

`CCN1CCN(c2cc3c(cc2F)c(=O)c(C(=O)O)cn3C2CC2)CC1` [Enrofloxacin, enrofloxacin, reference compound]: the MIC in the assay on M. gallisepticum (microtitre plates) is 0.06 µg/mL (≈ 0.167 µM); in [1], 0.5 µg/mL (≈ 1.39 µM); in assay [2], 0.12 µg/mL (≈ 0.334 µM); in the assay with Bacillus cereus, 0.25 µg/mL (≈ 0.696 µM); in assay [3] it was 0.12 µg/mL (≈ 0.334 µM); with Streptococcus faecium it was 1 µg/mL (≈ 2.78 µM). Also, the MIC came to 0.25 µg/mL (≈ 0.696 µM) in assay [4] and 2 µg/mL (≈ 5.56 µM) in [5].

The compound `CC[C@H]1OC(=O)C[C@@H](O)[C@H](C)[C@@H](O[C@@H]2O[C@H](C)[C@@H](O[C@H]3C[C@@](C)(O)[C@@H](O)[C@H](C)O3)[C@H](N(C)C)[C@H]2O)[C@@H](CC=O)C[C@@H](C)C(=O)/C=C/C(C)=C/[C@@H]1CO[C@@H]1O[C@H](C)[C@@H](O)[C@@H](OC)[C@H]1OC` [Tylosin, tylosin, reference compound] returned an MIC in the assay with M. gallisepticum (microtitre plates) of 0.06 µg/mL (≈ 0.0655 µM).

As to `O=C(O)c1cn(C2CC2)c2cc(NCc3ccncc3)c(F)cc2c1=O` [JA 68, 1-cyclopropyl-6-fluoro-4-oxo-7-[(4-pyridinylmethyl)amino]-1,4-dihydro-3-quinolinecarboxylic acid], the “Number of T. evansi per examined field” value in the assay with T. evansi (setting [7]) was “+ (+=1-4 organisms)”; in the assay with T. evansi (setting [8]), “++ (++=5-10 organisms) (9×) and 0 (0=no organisms detected)”; with T. evansi (setting [9]) it was 0 (0=no organisms detected) (8×) and ++ (++=5-10 organisms) (2×); with T. evansi (setting [10]), “+++ (+++=>10 organisms) and 0 (0=no organisms detected) (9×)”; with T. evansi (setting [11]), 0 (0=no organisms detected) (9×) and dead; with T. evansi (setting [12]) it was 0 (0=no organisms detected) (9×) and dead. In the assay with T. evansi (setting [13]), the “Number of T. evansi per examined field” value is 0 (0=no organisms detected) (9×) and dead. For the same compound, the MIC in assay [1] was 0.12 µg/mL (≈ 0.34 µM); in assay [2] it was 0.12 µg/mL (≈ 0.34 µM); against Bacillus cereus, 0.06 µg/mL (≈ 0.17 µM); in assay [3], 0.25 µg/mL (≈ 0.708 µM); in the assay on Streptococcus faecium it was 1 µg/mL (≈ 2.83 µM); in [4] it was 0.12 µg/mL (≈ 0.34 µM). For the same compound, the MIC in [5] stood at 2 µg/mL (≈ 5.66 µM).
